In one assay the target is JAK3 (Homo sapiens (Human), UniProt P52333). Nature of the assay: JAK3 enzyme assay (Z'-LYTE). Format: biochemical. Particulars: 10 μM ATP, arithmetic mean of two or more experiments; for IC50: read-out: JAK3 enz pIC50 (converted).
Another assay concerns the target JAK2 (Homo sapiens (Human), UniProt O60674). Nature of the assay: JAK2 enzyme assay (Z'-LYTE). The assay is classed as biochemical. The note with it: 25 μM ATP, arithmetic mean of two or more experiments; for IC50: read-out: JAK2 enz pIC50 (converted).
The target in another assay is DNAPK (Homo sapiens (Human), UniProt P78527). Description: DNAPK cellular potency assay (DNA-PK cell), pS2056-DNAPK ELISA in irradiated A549 cells. The assay is classed as cell-based. Particulars: 8 Gy radiation, arithmetic mean of two or more experiments, read-out: DNA-PK cell pIC50 (converted).
For assay [1], the target named is Full length human DNAPK protein (Homo sapiens (Human), UniProt P78527). Nature of the assay: DNAPK enzyme potency assay (DNA-PK enz), TR-FRET. Particulars: arithmetic mean of two or more experiments, 18 μM ATP; for IC50: read-out: DNA-PK enz pIC50 (converted). The assay is classed as biochemical. The source says:
The following assays were used to measure the effects of the compounds described herein: a) DNAPK enzyme potency assay; b) DNAPK cellular potency assay. During the description of the assays, generally: • i. The following abbreviations have been used; DMSO=Dimethyl Sulphoxide; DTT=Dithiothreitol; EDTA=Ethylenediaminetetraacetic Acid, TR-FRET=Time Resolved Fluorescence Resonance Energy Transfer, ATP=Adenosine triphosphate, DTT=Dithiothreitol, DNA=Deoxyribonucleic acid, HEPES=(2-hydroxyethyl)-1-piperazineethanesulfonic acid • ii. […] Assay a): DNAPK Enzyme Potency Assay (DNA-PK Enz)
The inhibitory activity of compounds against DNAPK was determined by TR-FRET measuring a fluorescent labelled peptide substrate converting to a phosphorylated product. Fluorescently tagged peptide substrate were purchased from Thermo Fisher Scientific. 12 point half-log compound concentration-response curves, with a top concentration of 100 μM were generated from 10 mM stocks of compound solubilised in DMSO using an Echo 555 (Labcyte Inc., Sunnyvale, CA). All assays were preformed in white Greiner 1536 well low volume plates (Greiner Bio-One, UK), in a total reaction volume of 3 μL and 1% (v/v) final DMSO concentration. Enzymes and substrates were added separately to the compound plates and incubated at room temperature. The kinase reaction was then quenched by the addition of 3 μL of stop buffer. Stopped assay plates were read using a BMG Pherastar. IC50 values were calculated using a Genedata Screener® software (Genedata, Inc., Basel, Switzerland).
Full length human DNAPK protein was purified from HeLa cell extract by ion exchange. Initially DNAPK protein was incubated with compound for 30 minutes at room temperature in reaction buffer (50 mM Hepes pH 7.5, 0.01% Brij-35, 10 mM MgCl2, 1 mM EGTA, 1 mM DTT, […] Calf Thymus DNA). The reaction was then initiated by the addition of ATP and fluorescently tagged peptide substrate (Fluorescein-[…], Thermo Fisher Scientific). […] The reaction was incubated for a further hour and the plates were read on a BMG Pherastar.
Data was analysed and IC50 values were calculated using Genedata Screener® software (Genedata, Inc., Basel, Switzerland).

Another assay deals with JAK1 (Homo sapiens (Human), UniProt P23458). Description: JAK1 enzyme assay (Z'-LYTE). Format: biochemical. Particulars: 75 μM ATP, arithmetic mean of two or more experiments; for IC50: read-out: JAK1 enz pIC50 (converted).
Sequence of JAK1 (P23458 whole entry): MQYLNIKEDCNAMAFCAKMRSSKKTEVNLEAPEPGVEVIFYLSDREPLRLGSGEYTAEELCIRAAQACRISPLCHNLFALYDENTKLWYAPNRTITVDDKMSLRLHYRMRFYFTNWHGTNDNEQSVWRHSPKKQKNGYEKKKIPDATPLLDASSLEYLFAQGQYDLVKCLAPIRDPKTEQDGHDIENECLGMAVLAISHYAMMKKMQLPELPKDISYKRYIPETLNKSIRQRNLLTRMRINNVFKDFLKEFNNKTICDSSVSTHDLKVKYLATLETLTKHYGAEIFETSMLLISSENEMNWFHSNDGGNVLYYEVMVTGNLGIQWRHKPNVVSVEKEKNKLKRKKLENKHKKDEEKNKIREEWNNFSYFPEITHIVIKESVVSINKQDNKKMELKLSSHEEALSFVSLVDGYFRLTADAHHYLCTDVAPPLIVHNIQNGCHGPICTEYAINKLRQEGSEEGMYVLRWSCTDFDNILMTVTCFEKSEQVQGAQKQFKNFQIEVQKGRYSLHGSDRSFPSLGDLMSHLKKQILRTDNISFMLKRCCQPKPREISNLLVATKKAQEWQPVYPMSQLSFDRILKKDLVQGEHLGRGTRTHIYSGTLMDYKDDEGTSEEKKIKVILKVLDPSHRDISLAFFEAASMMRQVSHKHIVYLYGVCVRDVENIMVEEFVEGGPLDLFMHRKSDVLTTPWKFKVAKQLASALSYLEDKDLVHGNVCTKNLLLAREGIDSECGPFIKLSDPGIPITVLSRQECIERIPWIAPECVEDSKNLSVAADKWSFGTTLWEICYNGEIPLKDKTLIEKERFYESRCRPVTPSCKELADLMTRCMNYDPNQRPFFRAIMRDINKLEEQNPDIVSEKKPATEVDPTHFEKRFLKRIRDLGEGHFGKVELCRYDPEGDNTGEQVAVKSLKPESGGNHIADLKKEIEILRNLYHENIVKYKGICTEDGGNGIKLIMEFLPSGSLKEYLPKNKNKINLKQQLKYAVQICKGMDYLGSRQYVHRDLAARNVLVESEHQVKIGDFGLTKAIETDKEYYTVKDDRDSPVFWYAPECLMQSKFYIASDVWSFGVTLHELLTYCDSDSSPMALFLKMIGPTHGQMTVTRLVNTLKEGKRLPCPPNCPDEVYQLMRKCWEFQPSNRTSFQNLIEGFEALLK

Sequence of JAK2 (O60674 whole entry): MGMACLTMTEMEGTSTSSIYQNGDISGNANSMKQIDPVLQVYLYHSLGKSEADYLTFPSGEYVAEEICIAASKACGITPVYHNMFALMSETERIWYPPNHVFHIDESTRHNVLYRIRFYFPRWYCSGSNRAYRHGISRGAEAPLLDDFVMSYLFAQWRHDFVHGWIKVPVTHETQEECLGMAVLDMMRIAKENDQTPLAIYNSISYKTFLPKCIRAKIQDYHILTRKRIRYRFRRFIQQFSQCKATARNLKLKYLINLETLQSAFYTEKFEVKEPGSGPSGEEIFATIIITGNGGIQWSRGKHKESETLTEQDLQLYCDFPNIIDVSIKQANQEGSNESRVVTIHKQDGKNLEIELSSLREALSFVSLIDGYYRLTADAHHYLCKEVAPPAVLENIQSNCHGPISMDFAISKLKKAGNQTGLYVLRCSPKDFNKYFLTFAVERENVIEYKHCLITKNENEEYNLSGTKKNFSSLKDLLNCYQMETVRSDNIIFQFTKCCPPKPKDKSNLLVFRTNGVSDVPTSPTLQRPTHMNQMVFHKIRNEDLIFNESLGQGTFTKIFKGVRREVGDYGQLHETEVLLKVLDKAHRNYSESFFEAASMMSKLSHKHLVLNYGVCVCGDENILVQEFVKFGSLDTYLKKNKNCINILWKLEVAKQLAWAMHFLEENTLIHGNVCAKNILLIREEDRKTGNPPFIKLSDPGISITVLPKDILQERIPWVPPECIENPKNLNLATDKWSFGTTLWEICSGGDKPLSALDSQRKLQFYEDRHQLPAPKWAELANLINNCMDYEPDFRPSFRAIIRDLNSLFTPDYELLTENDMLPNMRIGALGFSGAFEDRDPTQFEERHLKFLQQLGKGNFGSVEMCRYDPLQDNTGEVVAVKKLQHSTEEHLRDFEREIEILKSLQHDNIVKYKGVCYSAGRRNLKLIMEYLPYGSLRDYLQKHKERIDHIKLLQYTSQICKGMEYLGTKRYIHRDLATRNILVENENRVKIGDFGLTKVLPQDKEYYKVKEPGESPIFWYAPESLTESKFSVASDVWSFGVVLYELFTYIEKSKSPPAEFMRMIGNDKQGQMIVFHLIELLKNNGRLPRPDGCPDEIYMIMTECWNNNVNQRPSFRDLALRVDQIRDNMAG
Sequence of JAK3 (P52333 whole entry): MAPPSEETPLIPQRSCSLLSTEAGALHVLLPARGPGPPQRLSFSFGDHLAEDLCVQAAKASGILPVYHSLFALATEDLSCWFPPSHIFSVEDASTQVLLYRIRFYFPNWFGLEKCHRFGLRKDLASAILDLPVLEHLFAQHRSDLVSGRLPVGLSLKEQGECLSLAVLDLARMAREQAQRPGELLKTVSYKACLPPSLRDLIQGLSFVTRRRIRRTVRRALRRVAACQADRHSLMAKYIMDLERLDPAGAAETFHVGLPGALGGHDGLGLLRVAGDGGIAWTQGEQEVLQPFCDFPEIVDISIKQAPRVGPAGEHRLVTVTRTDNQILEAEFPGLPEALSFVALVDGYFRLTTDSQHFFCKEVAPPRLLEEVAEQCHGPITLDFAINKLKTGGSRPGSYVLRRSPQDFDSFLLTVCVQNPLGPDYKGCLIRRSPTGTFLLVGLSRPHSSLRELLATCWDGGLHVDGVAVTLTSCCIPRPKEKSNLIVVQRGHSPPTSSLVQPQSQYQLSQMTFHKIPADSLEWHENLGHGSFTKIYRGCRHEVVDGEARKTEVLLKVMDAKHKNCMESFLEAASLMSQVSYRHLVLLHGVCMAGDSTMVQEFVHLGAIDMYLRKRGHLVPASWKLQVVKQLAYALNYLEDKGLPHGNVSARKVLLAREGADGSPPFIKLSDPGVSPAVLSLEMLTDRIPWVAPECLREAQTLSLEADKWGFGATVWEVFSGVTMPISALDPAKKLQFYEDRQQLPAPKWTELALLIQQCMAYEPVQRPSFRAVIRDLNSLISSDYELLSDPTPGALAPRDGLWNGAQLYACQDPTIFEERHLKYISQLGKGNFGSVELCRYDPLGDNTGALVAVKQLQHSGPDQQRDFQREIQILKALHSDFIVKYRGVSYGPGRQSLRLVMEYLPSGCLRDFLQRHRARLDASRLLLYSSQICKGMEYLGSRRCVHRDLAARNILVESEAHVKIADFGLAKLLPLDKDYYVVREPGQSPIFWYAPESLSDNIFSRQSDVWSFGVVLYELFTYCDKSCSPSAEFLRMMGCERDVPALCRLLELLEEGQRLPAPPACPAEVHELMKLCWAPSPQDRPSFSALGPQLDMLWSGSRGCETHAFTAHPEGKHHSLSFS

On to `Cc1cc2nnccc2cc1Nc1ncc2c(n1)n([C@H]1CCCOC1)c(=O)n2C` [Example 27, (S)-7-methyl-2-((7-methylcinnolin-6-yl)amino)-9-(tetrahydro-2H-pyran-3-yl)-7,9-dihydro-8H-purin-8-one], for which, on JAK3, the “JAK3 enz pIC50” value is less than 5. In addition, the “JAK2 enz pIC50” value on JAK2 is less than 5. Further, the IC50 on DNAPK was 12.6 nM. For the same molecule, the “DNA-PK enz pIC50” value in assay [1] is listed as greater than 10. The “JAK1 enz pIC50” value at JAK1 is given as less than 5.
As for `Cc1cc2nccnc2cc1Nc1ncc2c(n1)n([C@H]1CCCOC1)c(=O)n2C` [Example 28, (S)-7-methyl-2-((7-methylquinoxalin-6-yl)amino)-9-(tetrahydro-2H-pyran-3-yl)-7,9-dihydro-8H-purin-8-one], the “JAK3 enz pIC50” value on JAK3 is recorded as less than 5. Also, on JAK2, the “JAK2 enz pIC50” value was less than 5. The IC50 on DNAPK is 15.8 nM. Besides, the “DNA-PK enz pIC50” value in assay [1] is listed as greater than 10. The “JAK1 enz pIC50” value on JAK1 is reported as less than 5.
Regarding `Cc1cnc2cc(Nc3ncc4c(n3)n(C3CCOCC3)c(=O)n4C)c(C)cc2n1` [Example 33, 2-((2,7-dimethylquinoxalin-6-yl)amino)-7-methyl-9-(tetrahydro-2H-pyran-4-yl)-7,9-dihydro-8H-purin-8-one], the IC50 is greater than 10000 nM at JAK3; greater than 10000 nM at JAK2; 126 nM on DNAPK; 0.501 nM in assay [1]; greater than 10000 nM at JAK1.
As to `Cc1cnc2cc(C)c(Nc3ncc4c(n3)n(C3CCOCC3)c(=O)n4C)cc2n1` [Example 34, 2-((3,7-dimethylquinoxalin-6-yl)amino)-7-methyl-9-(tetrahydro-2H-pyran-4-yl)-7,9-dihydro-8H-purin-8-one], the IC50 on JAK3 was greater than 10000 nM; at JAK2, greater than 10000 nM; on DNAPK, 31.6 nM; in assay [1] it was less than 0.1 nM; at JAK1, greater than 10000 nM.
As for `Cc1cc2ncccc2cc1Nc1ncc2c(n1)n(C1CCS(=O)(=O)CC1)c(=O)n2C` [Example 35, 9-(1,1-dioxidotetrahydro-2H-thiopyran-4-yl)-7-methyl-2-((7-methylquinolin-6-yl)amino)-7,9-dihydro-8H-purin-8-one], the “JAK3 enz pIC50” value on JAK3 was 5.2. Further, the “JAK2 enz pIC50” value at JAK2 is given as less than 5. Also, the IC50 on DNAPK is 39.8 nM. In addition, the “DNA-PK enz pIC50” value in assay [1] is on record as greater than 10. The “JAK1 enz pIC50” value at JAK1 is reported as less than 5.
Regarding `Cc1cc2ncccc2cc1Nc1ncc2c(n1)n(C1COC1)c(=O)n2C` [Example 36, 7-methyl-2-((7-methylquinolin-6-yl)amino)-9-(oxetan-3-yl)-7,9-dihydro-8H-purin-8-one], the “JAK3 enz pIC50” value at JAK3 is given as less than 5. In addition, on JAK2, the “JAK2 enz pIC50” value is recorded as less than 5.1. In addition, on DNAPK, the IC50 was 31.6 nM. Also, in assay [1], the “DNA-PK enz pIC50” value is reported as 9.7. Besides, the “JAK1 enz pIC50” value at JAK1 is on record as less than 5.
For `Cc1cc2ncccc2cc1Nc1ncc2c(n1)n([C@@H]1CCNC[C@@H]1F)c(=O)n2C` [Example 38, 9-((3S,4R)-3-fluoropiperidin-4-yl)-7-methyl-2-((7-methylquinolin-6-yl)amino)-7,9-dihydro-8H-purin-8-one], on JAK3, the “JAK3 enz pIC50” value is less than 5. On JAK2, the “JAK2 enz pIC50” value is reported as less than 5. Also, the IC50 at DNAPK was 3160 nM. Also, the “DNA-PK enz pIC50” value in assay [1] was 8.0. Besides, on JAK1, the “JAK1 enz pIC50” value was less than 5.
As to `Cc1cc2ncccc2cc1Nc1ncc2c(n1)n([C@H]1CC[C@@](C)(N)CC1)c(=O)n2C` [Example 39, 9-((1s,4s)-4-amino-4-methylcyclohexyl)-7-methyl-2-((7-methylquinolin-6-yl)amino)-7,9-dihydro-8H-purin-8-one], the IC50 at JAK3 was greater than 10000 nM; at JAK2, greater than 10000 nM; on DNAPK, 79.4 nM; in assay [1], 1 nM; on JAK1, greater than 10000 nM.
Consider `Cc1cc2ncccc2cc1Nc1ncc2c(n1)n([C@H]1CC[C@](C)(N)CC1)c(=O)n2C` [Example 40, 9-((1r,4r)-4-amino-4-methylcyclohexyl)-7-methyl-2-((7-methylquinolin-6-yl)amino)-7,9-dihydro-8H-purin-8-one], for which the IC50 is greater than 7940 nM on JAK3; greater than 10000 nM at JAK2; 158 nM on DNAPK; 0.316 nM in assay [1]; greater than 10000 nM at JAK1.
With `Cc1cc2ncccc2cc1Nc1ncc2c(n1)n([C@@H]1CCN(C)C[C@@H]1F)c(=O)n2C` [Example 46, 9-((3S,4R)-3-fluoro-1-methylpiperidin-4-yl)-7-methyl-2-((7-methylquinolin-6-yl)amino)-7,9-dihydro-8H-purin-8-one], the “JAK3 enz pIC50” value at JAK3 is recorded as less than 5. Also, the “JAK2 enz pIC50” value at JAK2 is on record as less than 5. Moreover, at DNAPK, the IC50 was 631 nM. For the same molecule, the “DNA-PK enz pIC50” value in assay [1] was 8.1. For the same molecule, at JAK1, the “JAK1 enz pIC50” value was less than 5.
Take `Cc1cc2ncccc2cc1Nc1ncc2c(n1)n(C1CCN(C3COC3)CC1)c(=O)n2C` [Example 47, 7-methyl-2-((7-methylquinolin-6-yl)amino)-9-(1-(oxetan-3-yl)piperidin-4-yl)-7,9-dihydro-8H-purin-8-one]: the “JAK3 enz pIC50” value on JAK3 is less than 5. The “JAK2 enz pIC50” value at JAK2 is listed as less than 5. In addition, the IC50 on DNAPK is 200 nM. Also, the “DNA-PK enz pIC50” value in assay [1] stood at 9.0. The “JAK1 enz pIC50” value at JAK1 is reported as less than 5.
In the case of `Cc1cc2ncccc2cc1Nc1ncc2c(n1)n(C1CCN(CCO)CC1)c(=O)n2C` [Example 48, 9-(1-(2-hydroxyethyl)piperidin-4-yl)-7-methyl-2-((7-methylquinolin-6-yl)amino)-7,9-dihydro-8H-purin-8-one], the “JAK3 enz pIC50” value at JAK3 was less than 5. In addition, on JAK2, the “JAK2 enz pIC50” value is less than 5. For the same molecule, at DNAPK, the IC50 was 316 nM. The “DNA-PK enz pIC50” value in assay [1] is given as 9.0. On JAK1, the “JAK1 enz pIC50” value is given as less than 5.
For `COCCN1CCC(n2c(=O)n(C)c3cnc(Nc4cc5cccnc5cc4C)nc32)CC1` [Example 49, 9-(1-(2-methoxyethyl)piperidin-4-yl)-7-methyl-2-((7-methylquinolin-6-yl)amino)-7,9-dihydro-8H-purin-8-one], the “JAK3 enz pIC50” value at JAK3 is on record as less than 5. Besides, at JAK2, the “JAK2 enz pIC50” value was less than 5. In addition, the IC50 at DNAPK was 251 nM. In assay [1], the “DNA-PK enz pIC50” value amounted to 8.8. Also, on JAK1, the “JAK1 enz pIC50” value is less than 5.
Turning to `CCN1CCC(n2c(=O)n(C)c3cnc(Nc4cc5cccnc5cc4C)nc32)CC1` [Example 50, 9-(1-ethylpiperidin-4-yl)-7-methyl-2-((7-methylquinolin-6-yl)amino)-7,9-dihydro-8H-purin-8-one], on JAK3, the “JAK3 enz pIC50” value is given as less than 5. Besides, the “JAK2 enz pIC50” value on JAK2 is reported as less than 5. Also, the IC50 on DNAPK is 398 nM. Further, the “DNA-PK enz pIC50” value in assay [1] was found to be 8.4. Also, the “JAK1 enz pIC50” value on JAK1 is less than 5.
As to `CC(=O)N1CCC(n2c(=O)n(C)c3cnc(Nc4cc5cccnc5cc4C)nc32)CC1` [Example 51, 9-(1-acetylpiperidin-4-yl)-7-methyl-2-((7-methylquinolin-6-yl)amino)-7,9-dihydro-8H-purin-8-one], on JAK3, the “JAK3 enz pIC50” value was less than 5. Also, the “JAK2 enz pIC50” value on JAK2 is less than 5. Besides, on DNAPK, the IC50 is 12.6 nM. For the same molecule, the “DNA-PK enz pIC50” value in assay [1] was greater than 10. The “JAK1 enz pIC50” value at JAK1 was less than 5.

These data come from patent US11884671B2, “Purinone compounds and their use in treating cancer” (ASTRAZENECA AB, priority 2018, dated 2024).
